The text below walks through data of patent publication US12077503B2, “Substituted cyclic amides and their use as herbicides” (FMC CORPORATION, priority 2015, dated 2024).

Like-named read-outs stand apart in the source and are kept apart here.

Experiment in all cases: Test A preemergence
Common to all, as to type: in vivo

In experiment [1] the test system is barnyardgrass (Echinochloa crus-galli). Conditions: Echinochloa crus-galli, pre-emergence, 240 h; for pest or weed control at 125 g/ha: 125 g ai/ha; for pest or weed control at 500 g/ha: 500 g ai/ha. In short, it runs like this:
(§1)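 Greenhouse, ~10 d after spray; visual injury vs untreated controls, 0 = no effect, 100 = complete control. Preemergence: directed soil spray over planted seeds. Postemergence: plants 2–10 cm, 1–2 leaf stage. Loam/sand blend. Compound in non-phytotoxic solvent with surfactant.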

Experiment [2] deals with ryegrass, Italian (Italian ryegrass, Lolium multiflorum). Conditions: Lolium multiflorum, pre-emergence, 240 h; for pest or weed control at 125 g/ha: 125 g ai/ha; for pest or weed control at 500 g/ha: 500 g ai/ha. In short, it runs like this: as §1
Experiment [3] has as its system pigweed (Amaranthus retroflexus). Conditions: Amaranthus retroflexus, pre-emergence, 240 h; for pest or weed control at 125 g/ha: 125 g ai/ha; for pest or weed control at 500 g/ha: 500 g ai/ha.
In experiment [4] the test system is ragweed (common ragweed, Ambrosia elatior). Conditions: Ambrosia artemisiifolia, pre-emergence, 240 h; for pest or weed control at 125 g/ha: 125 g ai/ha; for pest or weed control at 500 g/ha: 500 g ai/ha. In short, it runs like this: as §1
The test system of the next experiment is Kochia (Kochia scoparia). The note with it: Bassia scoparia, pre-emergence, 240 h; for pest or weed control at 125 g/ha: 125 g ai/ha; for pest or weed control at 500 g/ha: 500 g ai/ha. In outline: as §1
The mark [5] stands for this setting: preemergence, 0 to 100 scale where 0 is no effect and 100 is complete control, read-out: Barnyardgrass plant response rating.
[6] abbreviates: Preemergence, visual injury vs untreated controls after approximately 10 d, read-out: Barnyardgrass plant response rating (0 to 100 scale where 0 is no effect and 100 is complete control).
The mark [7] stands for this setting: preemergence, 0 to 100 scale where 0 is no effect and 100 is complete control, read-out: Ryegrass, Italian plant response rating.
Where [8] appears, read: Preemergence, visual injury vs untreated controls after approximately 10 d, read-out: Ryegrass, Italian plant response rating (0 to 100 scale where 0 is no effect and 100 is complete control).
Setting [9] is: preemergence, 0 to 100 scale where 0 is no effect and 100 is complete control, read-out: Pigweed plant response rating.
[10] abbreviates: Preemergence, visual injury vs untreated controls after approximately 10 d, read-out: Pigweed plant response rating (0 to 100 scale where 0 is no effect and 100 is complete control).
[11] abbreviates: preemergence, 0 to 100 scale where 0 is no effect and 100 is complete control, read-out: Ragweed plant response rating.
The mark [12] stands for this setting: Preemergence, visual injury vs untreated controls after approximately 10 d, read-out: Ragweed plant response rating (0 to 100 scale where 0 is no effect and 100 is complete control).
Where [13] appears, read: preemergence, 0 to 100 scale where 0 is no effect and 100 is complete control, read-out: Kochia plant response rating.
The mark [14] stands for this setting: Preemergence, visual injury vs untreated controls after approximately 10 d, read-out: Kochia plant response rating (0 to 100 scale where 0 is no effect and 100 is complete control).

Turning to `CCOc1ccc([C@H]2CN(C)C(=O)[C@@H]2C(=O)Nc2ccc(F)cc2F)cc1` [Compound 905], the pest or weed control at 125 g/ha is 70% in experiment [1] (setting [5]); 0% in experiment [2] (setting [7]); 0% in experiment [3] (setting [9]); 0% in experiment [4] (setting [11]); 10% in the experiment with Kochia (Kochia scoparia) (setting [13]). Further, the pest or weed control at 500 g/ha in experiment [1] (setting [6]) was determined as 90%; in experiment [2] (setting [8]), 0%; in experiment [3] (setting [10]), 0%; in experiment [4] (setting [12]), 0%; in the experiment on Kochia (Kochia scoparia) (setting [14]), 90%.
`CN1C[C@H](c2cccc(C3CC3)c2)[C@@H](C(=O)Nc2ccccc2S(C)(=O)=O)C1=O` [Compound 817]: the pest or weed control at 125 g/ha in experiment [1] (setting [5]) is 90%; in experiment [2] (setting [7]), 20%; in experiment [3] (setting [9]), 0%; in experiment [4] (setting [11]), 20%; in the experiment with Kochia (Kochia scoparia) (setting [13]), 50%. Further, the pest or weed control at 500 g/ha in experiment [1] (setting [6]) was 90%; in experiment [2] (setting [8]) it was 40%; in experiment [3] (setting [10]), 80%; in experiment [4] (setting [12]), 50%; in the experiment with Kochia (Kochia scoparia) (setting [14]), 70%.
With `COc1ccc([C@H]2CN(C)C(=O)[C@@H]2C(=O)Nc2ccccc2SC)cc1OC` [Compound 854], the pest or weed control at 125 g/ha (in experiment [1] (setting [5]); in experiment [2] (setting [7]); in experiment [3] (setting [9]); in experiment [4] (setting [11]); in the experiment with Kochia (Kochia scoparia) (setting [13])) was 0% in each case. The pest or weed control at 500 g/ha was 80% in experiment [1] (setting [6]); 0% in experiment [2] (setting [8]); 0% in experiment [3] (setting [10]); 0% in experiment [4] (setting [12]); 0% in the experiment on Kochia (Kochia scoparia) (setting [14]).
As for `CS(=O)(=O)c1ccccc1NC(=O)[C@H]1C(=O)NC[C@@H]1c1cc(F)c(C(F)(F)F)c(F)c1` [Compound 839], the pest or weed control at 125 g/ha in experiment [1] (setting [5]) was determined as 80%; in experiment [2] (setting [7]), 0%; in experiment [3] (setting [9]), 90%; in experiment [4] (setting [11]), 80%; with Kochia (Kochia scoparia) (setting [13]), 90%. The pest or weed control at 500 g/ha in experiment [1] (setting [6]) was 90%; in experiment [2] (setting [8]), 40%; in experiment [3] (setting [10]), 90%; in experiment [4] (setting [12]), 90%; in the experiment with Kochia (Kochia scoparia) (setting [14]), 90%.
On to `CSc1ccccc1NC(=O)[C@H]1C(=O)N(C)C[C@@H]1c1cccc(COC(F)F)c1` [Compound 876], for which the pest or weed control at 125 g/ha in experiment [1] (setting [5]) is 60%; in experiment [2] (setting [7]), 0%; in experiment [3] (setting [9]) it was 0%; in experiment [4] (setting [11]), 0%; in the experiment with Kochia (Kochia scoparia) (setting [13]) it was 0%. Besides, the pest or weed control at 500 g/ha was found to be 90% in experiment [1] (setting [6]); 30% in experiment [2] (setting [8]); 30% in experiment [3] (setting [10]); 80% in experiment [4] (setting [12]); 70% with Kochia (Kochia scoparia) (setting [14]).
For the compound `CON1CC[C@H](c2ccc(F)cc2)[C@@H](C(=O)Nc2cccc(F)c2F)C1=O` [Compound 918], the pest or weed control at 125 g/ha (in experiment [1] (setting [5]); in experiment [2] (setting [7]); in experiment [3] (setting [9]); in experiment [4] (setting [11]); in the experiment on Kochia (Kochia scoparia) (setting [13])) was 0% throughout. Moreover, the pest or weed control at 500 g/ha in experiment [1] (setting [6]) was determined as 40%; in experiment [2] (setting [8]), 0%; in experiment [3] (setting [10]) it was 0%; in experiment [4] (setting [12]) it was 0%; in the experiment on Kochia (Kochia scoparia) (setting [14]), 0%.
`COc1ccc([C@H]2CN(C)C(=O)[C@@H]2C(=O)Nc2ccccc2F)cc1OC` [Compound 852]: the pest or weed control at 125 g/ha amounted to 90% in experiment [1] (setting [5]); 0% in experiment [2] (setting [7]); 20% in experiment [3] (setting [9]); 0% in experiment [4] (setting [11]); 0% with Kochia (Kochia scoparia) (setting [13]). The pest or weed control at 500 g/ha is 90% in experiment [1] (setting [6]); 30% in experiment [2] (setting [8]); 40% in experiment [3] (setting [10]); 0% in experiment [4] (setting [12]); 20% in the experiment on Kochia (Kochia scoparia) (setting [14]).
Turning to `CN1CC[C@H](c2cccc(Cl)c2)[C@@H](C(=O)Nc2cccc(F)c2F)C1=O` [Compound 921], the pest or weed control at 125 g/ha in experiment [1] (setting [5]) is 90%; in experiment [2] (setting [7]), 50%; in experiment [3] (setting [9]), 0%; in experiment [4] (setting [11]) it was 0%; with Kochia (Kochia scoparia) (setting [13]), 0%. In addition, the pest or weed control at 500 g/ha in experiment [1] (setting [6]) amounted to 90%; in experiment [2] (setting [8]), 60%; in experiment [3] (setting [10]) it was 0%; in experiment [4] (setting [12]) it was 0%; in the experiment on Kochia (Kochia scoparia) (setting [14]), 30%.
Regarding `CN1C[C@H](c2cc(F)cc(F)c2)[C@@H](C(=O)Nc2ccccc2[S@+](C)[O-])C1=O` [Compound 871], the pest or weed control at 125 g/ha was 20% in experiment [1] (setting [5]); 0% in experiment [2] (setting [7]); 0% in experiment [3] (setting [9]); 0% in experiment [4] (setting [11]); 80% in the experiment on Kochia (Kochia scoparia) (setting [13]). Further, the pest or weed control at 500 g/ha amounted to 90% in experiment [1] (setting [6]); 30% in experiment [2] (setting [8]); 30% in experiment [3] (setting [10]); 20% in experiment [4] (setting [12]); 80% in the experiment with Kochia (Kochia scoparia) (setting [14]).
With `Cc1cc(C)cc([C@H]2CNC(=O)[C@@H]2C(=O)Nc2cccc(F)c2F)c1` [Compound 889], the pest or weed control at 125 g/ha in experiment [1] (setting [5]) was determined as 90%; in experiment [2] (setting [7]) it was 30%; in experiment [3] (setting [9]), 0%; in experiment [4] (setting [11]) it was 30%; in the experiment on Kochia (Kochia scoparia) (setting [13]), 80%. For the same compound, the pest or weed control at 500 g/ha in experiment [1] (setting [6]) amounted to 90%; in experiment [2] (setting [8]), 40%; in experiment [3] (setting [10]) it was 0%; in experiment [4] (setting [12]), 40%; in the experiment with Kochia (Kochia scoparia) (setting [14]) it was 80%.
Consider `Cc1ccc([C@H]2CNC(=O)[C@@H]2C(=O)Nc2ccccc2F)cc1C` [Compound 1033], for which the pest or weed control at 125 g/ha in experiment [1] (Preemergence, visual injury rating after approximately 10 d, read-out: Barnyardgrass plant response rating (0 to 100 scale, 0 is no effect, 100 is complete control)) turned out to be 90%; in experiment [2] (Preemergence, visual injury rating after approximately 10 d, read-out: Ryegrass, Italian plant response rating (0 to 100 scale, 0 is no effect, 100 is complete control)) it was 0%; in experiment [3] (Preemergence, visual injury rating after approximately 10 d, read-out: Pigweed plant response rating (0 to 100 scale, 0 is no effect, 100 is complete control)), 0%; in experiment [4] (Preemergence, visual injury rating after approximately 10 d, read-out: Ragweed plant response rating (0 to 100 scale, 0 is no effect, 100 is complete control)), 0%; in the experiment on Kochia (Kochia scoparia) (Preemergence, visual injury rating after approximately 10 d, read-out: Kochia plant response rating (0 to 100 scale, 0 is no effect, 100 is complete control)), 0%. The pest or weed control at 500 g/ha came out at 90% in experiment [1] (preemergence, visual injury rating about 10 d after treatment, 0 to 100 scale (0 no effect, 100 complete control), read-out: Barnyardgrass plant response rating); 50% in experiment [2] (preemergence, visual injury rating about 10 d after treatment, 0 to 100 scale (0 no effect, 100 complete control), read-out: Ryegrass, Italian plant response rating); 0% in experiment [3] (preemergence, visual injury rating about 10 d after treatment, 0 to 100 scale (0 no effect, 100 complete control), read-out: Pigweed plant response rating); 10% in experiment [4] (preemergence, visual injury rating about 10 d after treatment, 0 to 100 scale (0 no effect, 100 complete control), read-out: Ragweed plant response rating); 60% in the experiment on Kochia (Kochia scoparia) (preemergence, visual injury rating about 10 d after treatment, 0 to 100 scale (0 no effect, 100 complete control), read-out: Kochia plant response rating).
